Results: US9157122B2, “Method of diagnosing cancer and reagents therefor” (Garvan Institute of Medical Research, priority 2004, dated 2015)

Assays:
Assay type in all cases: cell-based, human
HCT116 cells [1] = experiment: Real-time RT-PCR gene expression in HCT116 cells treated with 5-Aza-2′-deoxycytidine and/or TSA; conditions: for expression of CpG island-associated genes that are unmethylated and transcriptionally repressed: DDX18, INSIG2, PTPN, RALBB, TSN, FIG. 16g-k; for expression of genes hypermethylated in HCT116 (EN1, SCTR and INHBB): genes linked to 2q14.2, FIG. 16b, c and d
Experimental: RNA was extracted using Trizol reagent (Invitrogen) according to the manufacturer's protocol. cDNA was reverse transcribed from 2 μg of total RNA using SuperScriptTM III RNase H^- Reverse Transcriptase (Invitrogen Life technologies), according to the manufacturer's instructions. The reaction was primed with 200 ng of random hexamers (Roche). The reverse transcription reaction was then diluted 1:20 with sterile H2O before addition to a PCR reaction. […] The primers used for amplification comprise a sequence set forth in any one of SEQ ID Nos 119 to 218. Primers were used in a combination described herein. To control for the amount and integrity of the RNA, the Human 18S ribosomal RNA (rRNA) kit (P/N 4308329) (Applied Biosystems), containing the rRNA forward and reverse primers and rRNA VICTM probe, was used. 5 μl of the reverse transcription was used in a 20 μl reaction in TaqMan Universal PCR Master Mix (P/N 4304437) with 1 μl of the 20× Human 18S rRNA mix. The reactions were performed in triplicate and the standard deviation was calculated using the Comparative method (ABI PRISM 7700 Sequence Detection system User Bulletin #2, […] 4303859). The cycle number corresponding to where the measured fluorescence crosses a threshold is […] to the amount of starting material. The mean expression levels are represented as the ratio between each gene and 18S rRNA expression. The colon cancer cell line HCT116 was cultured in D-MEM/F12 (Gibco/BRL) medium supplemented with MEM sodium pyruvate and L-Glutamine and 10% fetal calf serum at 37° C. with 10% CO2. Cells were split 1:8 every 3-4 days. Cells were split 12 h to 24 h prior to treatment. 5-Aza-2'-deoxycytidine (5-aza-dC)(Sigma) was prepared as a 1 mg/ml stock in sterile water, filter-sterilized and frozen as aliquots. 100 mm tissue culture dishes were seeded with 0.5×10^6 cells and following 24 h incubation the cells were treated with 0.5 μm 5-aza-dC. The cells were treated for 24 hours after which the medium was replaced with fresh medium and the cells cultured for a further 48 h before harvesting. Cells were treated with trichostatin A (TSA) (Sigma) at 25, 50 and 100 nM for 24 h. Alternatively, an identical volume of ethanol was used as a control. For co-treatment of cells with 5-aza-dC and TSA, 5-aza-dC was added initially for 24 h, after which it was removed and TSA was added for a further 24 h. The concentrations and the treatment conditions used were chosen based on preliminary studies showing optimal reactivation of gene expression. Expression levels of the genes DDX18, INSIG2, EN1, MARCO, PTPN4, RALBB, GLI2 and TSN was determined essentially as described above.

HCT116 cells [2] = experiment: ChIP assay with anti-dimethyl-histone H3(lys9) antibody in treated HCT116 cells, real-time PCR; conditions: relative to untreated cells; for methylation of H3-K9 histones associated with the p21 CpG island promoter region: FIG. 17a; for methylation of H3-K9 histones associated with the unmethylated genes (DDX18, INSIG2, PTPN, RALBB): FIG. 17g-k; for binding of methylated K9-H3 histones to DNA methylated genes (EN1, SCTR, INHBB, GLI2, MARCO): FIGS. 17b-f
Experimental: ChIP assays were carried out according to the manufacturer (Upstate Biotechnology) and described in Stirzaker et al., Cancer Res 64: 3871-3877, 2004. Briefly, 1×10^6 HCT116 cells, in a 10 cm dish, were fixed by adding formaldehyde at a final concentration of 1% and incubating for 10 minutes at 37° C. The cells were washed twice with ice cold PBS containing protease inhibitors (1 mM phenylmethylsulfonyl fluoride (PMSF), 1 μg/ml aprotinin and 1 μg/ml pepstatin A), harvested and treated with SDS lysis buffer for 10 min on ice. The resulting lysates were sonicated to shear the DNA to fragment lengths of 200 to 500 basepairs. […] No antibody controls were also included for each ChIP assay and no precipitation was observed. The antibody/protein complexes were collected by salmon sperm DNA/protein A agarose slurry and washed several times following the manufacturer's instructions. The immune complexes were eluted with 1% SDS and 0.1 M NaHCO3 and the crosslinks were reversed by incubation at 65° C. for 4 hours in the presence of 200 mM NaCl. The samples were treated with proteinase K for 1 hour and the DNA was purified by phenol/chloroform extraction, ethanol precipitation and resuspended in 30 μl H2O. The amount of target that was immunoprecipitated, was measured by Real-Time PCR using the ABI Prism 7900HT Sequence Detection System. Amplification primers are set forth SEQ ID NOs: 235 to 256. PCR reactions were set up according to the SDS compendium (ver 2.1) for the 7900HT Applied Biosystems Sequence Detector as described previously (Stirzaker, supra). Either immunoprecipitated DNA, no-antibody control or input chromatin were used in each PCR and the PCRs were set up in triplicate. Standard deviation was calculated using the Comparative method (ABI PRISM 7700 Sequence Detection System User Bulletin #2, […] 4303859). For each sample an average CT value was obtained for immunoprecipitated material and for the input chromatin. The difference in CT values (delta CT) reflects the difference in the amount of material that was immunoprecipitated relative to the amount of input (ABI PRISM 7700 Sequence Detection system User Bulletin #2, […] 4303859). To determine if chromatin modification was associated with the suppression of all the genes across the entire band in cancer, regardless of the DNA methylation status, ChIP (chromatin immunoprecipitation) analysis and real-time PCR was performed.

HCT116 cells [3] = experiment: ChIP assay with anti-acetylated histone antibody in treated HCT116 cells, real-time PCR; conditions: relative to untreated cells, FIG. 18
Experimental: ChIP assays were carried out according to the manufacturer (Upstate Biotechnology) and described in Stirzaker et al., Cancer Res 64: 3871-3877, 2004. Briefly, ˜1×10^6 HCT116 cells, in a 10 cm dish, were fixed by adding formaldehyde at a final concentration of 1% and incubating for 10 minutes at 37° C. The cells were washed twice with ice cold PBS containing protease inhibitors (1 mM phenylmethylsulfonyl fluoride (PMSF), 1 μg/ml aprotinin and 1 μg/ml pepstatin A), harvested and treated with SDS lysis buffer for 10 min on ice. The resulting lysates were sonicated to shear the DNA to fragment lengths of 200 to 500 basepairs. The complexes were immunoprecipitated with an antibody specific for dimethyl-histone H3(lys9), Upstate Biotechnology (#07-212) or acetylated histone. […]
The amount of target that was immunoprecipitated, was measured by Real-Time PCR using the ABI Prism 7900HT Sequence Detection System. […] Standard deviation was calculated using the Comparative method (ABI PRISM 7700 Sequence Detection System User Bulletin #2, 1997 (P/N 4303859). For each sample an average CT value was obtained for immunoprecipitated material and for the input chromatin. The difference in CT values (delta CT) reflects the difference in the amount of material that was immunoprecipitated relative to the amount of input (ABI PRISM 7700 Sequence Detection system User Bulletin #2, 1997 (P/N 4303859).

Row | SMILES | expression of CpG island-associated genes that are unmethylated and transcriptionally repressed (HCT116 cells [1]) | expression of genes hypermethylated in HCT116 (EN1, SCTR and INHBB) (HCT116 cells [1]) | methylation of H3-K9 histones associated with the p21 CpG island promoter region (HCT116 cells [2]) | methylation of H3-K9 histones associated with the unmethylated genes (DDX18, INSIG2, PTPN, RALBB) (HCT116 cells [2]) | binding of methylated K9-H3 histones to DNA methylated genes (EN1, SCTR, INHBB, GLI2, MARCO) (HCT116 cells [2]) | p21 expression activated (control gene) (HCT116 cells [1]; 0.5 μm 5-aza-dC 24 h, TSA 24 h, co-treatment 5-aza-dC 24 h then TSA 24 h, normalised to 18S RNA, FIG. 16a) | H3-K9 acetylation for genes hypermethylated in HCT116 cells (HCT116 cells [3])
1 | Nc1ncn([C@H]2C[C@H](O)[C@@H](CO)O2)c(=O)n1 [5AzaC, 5-Aza-2′-deoxycytidine] | some reactivation | small increases of expression | Demethylation of the H3-K9 histones also occurred | resulted in demethylation | binding was reduced | – | –
2 | CC(/C=C/C(=O)NO)=C\[C@@H](C)C(=O)c1ccc(N(C)C)cc1 [TSA, trichostatin A] | some reactivation | small increases of expression | substantial demethylation | substantial demethylation | binding was reduced | more than 3 fold | Increased H3-K9 acetylation
